The numbers were not newly measured in patent US9981058B2, “Balloon surface coating” (CARDIONOVUM Sp.z.o.o., priority 2011, dated 2018), which cites them from elsewhere.

Like-named read-outs stand apart in the source and are kept apart here.

As for `CC(=O)O[C@H]1C(=O)[C@@]2(C)[C@H]([C@H](OC(=O)c3ccccc3)[C@]3(O)C[C@H](OC(=O)[C@H](O)[C@@H](NC(=O)c4ccccc4)c4ccccc4)C(C)=C1C3(C)C)[C@]1(OC(C)=O)CO[C@@H]1C[C@@H]2O` (relative stereo) [Paclitaxel, [2aR-[2a,4,4a,6,9(R*,S*),11, 12,12a,12b]]-(benzoylamino)-hydroxybenzene propionic acid 6,12b-bis-(acetyloxy)-12-(benzoyloxy)-2a-3,4,4a,5,6,9, 10, 11, 12, 12a,12b-dodecahydro-4, 11-dihydroxy-4a,8,13,13-tetramethyl-5-oxo-7,11-methano-1H-cyclodeca[3,4]benz[1,2-b]oxet-9-yl ester)], the Solubility result runs as follows: (in dimethyl sulfoxide (DMSO), methanol and anhydrous ethanol) “highly soluble”; (in water) “comparatively poorly soluble”.
